Patent publication US20120040951A1, “HETEROARYL COMPOUNDS USEFUL AS RAF KINASE INHIBITORS” (priority 2008, published 2012)
pEC50, pIC50: −log10 of the molar value.

Tests used:
V599E Raf = V599E Raf (Homo sapiens, UniProt P15056, V600E); assay: Biochemical FRET assay, mutant Raf (phosphorylation of MEK); conditions: 0.125 nM V599E Raf, 100 nM biotin-MEK, 25 μM ATP, read-out: Raf (mut) inhibition
Outline: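 V599E Raf (0.125 nM) preincubated 20 min with inhibitor and 100 nM biotin-MEK in HEPES pH 7.4 with Mg2+/Mn2+, then reacted with 25 μM ATP for 60 min at room temperature. EDTA-stopped; phospho-MEK1/2 (Ser217/221) detected by Eu/APC TR-FRET after 90 min.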

[1] = system: phospho-ERK in melanoma derived WM-266-4 cells; assay: Mechanistic cellular assay for Raf kinase activity (phospho-ERK, Bio-Plex); type: cell-based; conditions: Homo sapiens, treated 1-2 hr at 37° C., serum free medium, read-out: pERK EC50
Outline: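 WM-266-4 melanoma cells (wild-type/V600D BRaf) grown overnight in 10% FBS RPMI, then treated 1–2 h at 37 °C in serum-free RPMI with eight 3-fold dilutions of compound (from 5 mM DMSO stock, 1000× dilution). Lysate phospho-ERK1,2 quantified by Bio-Plex bead immunoassay.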

Sequence of V599E Raf (P15056 whole entry V600E): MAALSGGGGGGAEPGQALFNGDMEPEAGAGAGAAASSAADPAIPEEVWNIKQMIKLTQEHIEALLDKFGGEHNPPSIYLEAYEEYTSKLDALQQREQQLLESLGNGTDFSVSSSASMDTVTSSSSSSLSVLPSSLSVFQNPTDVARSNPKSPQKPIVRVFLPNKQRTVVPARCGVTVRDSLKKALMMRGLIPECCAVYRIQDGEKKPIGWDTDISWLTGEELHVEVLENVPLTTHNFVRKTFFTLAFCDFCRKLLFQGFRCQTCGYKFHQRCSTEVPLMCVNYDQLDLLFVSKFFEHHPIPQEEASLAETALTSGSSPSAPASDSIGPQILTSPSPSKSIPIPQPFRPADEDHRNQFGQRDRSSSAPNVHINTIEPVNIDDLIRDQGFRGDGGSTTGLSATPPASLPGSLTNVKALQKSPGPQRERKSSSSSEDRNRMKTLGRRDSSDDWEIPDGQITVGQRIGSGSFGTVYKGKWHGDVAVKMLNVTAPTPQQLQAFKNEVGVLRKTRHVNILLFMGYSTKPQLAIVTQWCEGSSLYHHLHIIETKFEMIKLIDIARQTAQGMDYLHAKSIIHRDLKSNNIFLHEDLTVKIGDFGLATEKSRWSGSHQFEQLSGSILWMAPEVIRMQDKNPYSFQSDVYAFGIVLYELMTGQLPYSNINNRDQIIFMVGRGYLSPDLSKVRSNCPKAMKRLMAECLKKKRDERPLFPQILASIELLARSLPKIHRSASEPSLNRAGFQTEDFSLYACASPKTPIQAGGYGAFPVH

SMILES | pIC50 (V599E Raf) | pEC50 [1]
C[C@@H](NC(=O)c1ccc2[nH]c(CO)nc2c1)c1ncc(C(=O)Nc2cc(C(F)(F)F)c(Cl)cn2)s1 [Example 55] | ≥ 7.00 | 5.00 to 6.00
CC(NC(=O)c1cc2c(cn1)ncn2C)c1cnc(Nc2ccc(C(F)(F)F)nc2Cl)s1 (centres unmarked) [Example 263] | ≥ 7.00 | 6.00 to 7.00
CC(NC(=O)c1cc2c(cn1)ncn2C)c1cnc(Nc2cnc(C(F)(F)F)nc2)s1 (centres unmarked) [Example 261] | ≥ 7.00 | 6.00 to 7.00
CC(NC(=O)c1cc2c(cn1)ncn2C)c1cnc(Nc2ccc(C(F)(F)F)cc2Cl)cn1 (centres unmarked) [Example 265a] | ≥ 7.00 | 6.00 to 7.00
C[C@@H](NC(=O)c1cnn(C)c1CN1CCCCC1)c1ncc(C(=O)Nc2cc(C(F)(F)F)c(Cl)cn2)s1 [Example 128] | 6.00 to 7.00 | 6.00 to 7.00
C[C@@H](NC(=O)c1csc(N)n1)c1ncc(C(=O)Nc2cc(C(F)(F)F)c(Cl)cn2)s1 [Example 98] | ≥ 7.00 | 5.00 to 6.00
CC(NC(=O)c1cc2c(cn1)ncn2C)c1cnc(Nc2ccc(F)c(S(=O)(=O)C(F)(F)F)c2)cn1 (centres unmarked) [Example 268] | ≥ 7.00 | ≥ 7.00
CC(NC(=O)c1cc(N)ccn1)c1ncc(C(=O)Nc2cc(C(F)(F)F)c(Cl)cn2)s1 (centres unmarked) [Example 87] | 6.00 to 7.00 | 5.00 to 6.00
CCc1[nH]ncc1C(=O)N[C@H](C)c1ncc(C(=O)Nc2cc(C(F)(F)F)c(Cl)cn2)s1 [Example 125] | 6.00 to 7.00 | 6.00 to 7.00
C[C@@H](NC(=O)c1ccc2sccc2c1)c1ncc(C(=O)Nc2cc(C(F)(F)F)c(Cl)cn2)s1 [Example 67] | 6.00 to 7.00 | 5.00 to 6.00
C[C@@H](NC(=O)c1cnc(CN2CCOCC2)n1C)c1ncc(C(=O)Nc2cc(C(F)(F)F)c(Cl)cn2)s1 [Example 156] | ≥ 7.00 | 5.00 to 6.00
C[C@@H](NC(=O)c1cnc(CN2CCCC2)n1C)c1ncc(C(=O)Nc2cc(C(F)(F)F)c(Cl)cn2)s1 [Example 155] | ≥ 7.00 | 5.00 to 6.00
CC(NC(=O)c1cc2c(cn1)nc(N)n2C)c1cnc(Nc2ccc(C(F)(F)F)cc2)cn1 (centres unmarked) [Example 201] | ≥ 7.00 | ≥ 7.00
C[C@@H](NC(=O)c1ccc2ncccc2c1)c1cc(C(=O)Nc2cnc(C(C)(C)C)nc2N)no1 [Example 65] | 6.00 to 7.00 | 5.00 to 6.00
Cc1ccc(NC(=O)c2cc([C@@H](C)NC(=O)c3cnn4cccnc34)no2)cc1C(F)(F)F [Example 221] | 6.00 to 7.00 | 6.00 to 7.00
Cc1nc2cc(C(=O)N[C@H](C)c3ncc(C(=O)Nc4cc(C(F)(F)F)c(Cl)cn4)s3)ccc2n1CCO [Example 52] | ≥ 7.00 | 5.00 to 6.00

SMILES | pIC50 (V599E Raf) | pEC50 [1]
CC(C)Oc1cc(C(F)(F)F)ccc1Nc1ncc(C(C)NC(=O)c2cc3c(cn2)ncn3C)s1 (centres unmarked) [Example 289] | ≥ 7.00 | 6.00 to 7.00
C[C@@H](NC(=O)c1ccc2[nH]nnc2c1)c1ncc(C(=O)Nc2cc(C(F)(F)F)c(Cl)cn2)s1 [Example 57] | ≥ 7.00 | 5.00 to 6.00
CC(NC(=O)c1cc2c(cn1)ncn2C1CCC1)c1cnc(Nc2ccc(Cl)c(C(F)(F)F)c2)cn1 (centres unmarked) [Example 234] | ≥ 7.00 | 6.00 to 7.00
O=C(Nc1ccc(Cl)c(C(F)(F)F)c1)c1ccc(CNC(=O)c2cnn3ccccc23)cc1 [Example 231] | 6.00 to 7.00 | 5.00 to 6.00
C[C@@H](NC(=O)c1cn[nH]c1-c1ccccc1)c1ncc(C(=O)Nc2cc(C(F)(F)F)c(Cl)cn2)s1 [Example 107] | ≥ 7.00 | 6.00 to 7.00
C[C@@H](NC(=O)c1ccc2[nH]c(C(F)(F)F)nc2c1)c1ncc(C(=O)Nc2cc(C(F)(F)F)c(Cl)cn2)s1 [Example 62] | 6.00 to 7.00 | 5.00 to 6.00
C[C@@H](NC(=O)c1cnn2ccccc12)c1cc(C(=O)Nc2ccc(Br)c(C(F)(F)F)c2)on1 [Example 209] | 6.00 to 7.00 | ≥ 7.00
Cc1ncsc1C(=O)N[C@H](C)c1ncc(C(=O)Nc2cc(C(F)(F)F)c(Cl)cn2)s1 [Example 99] | ≥ 7.00 | 5.00 to 6.00
C[C@@H](NC(=O)c1cccc(N2CCOCC2)n1)c1ncc(C(=O)Nc2cc(C(F)(F)F)c(Cl)cn2)s1 [Example 90] | ≥ 7.00 | 6.00 to 7.00
C[C@@H](NC(=O)c1cnn(C)c1CN1CCCC1)c1ncc(C(=O)Nc2cc(C(F)(F)F)c(Cl)cn2)s1 [Example 132] | 6.00 to 7.00 | 6.00 to 7.00
Cc1nc2cc(C(=O)N[C@H](C)c3ncc(C(=O)Nc4cc(C(F)(F)F)c(Cl)cn4)s3)ccc2n1C [Example 68] | ≥ 7.00 | 5.00 to 6.00
C[C@@H](NC(=O)c1ccc2ncccc2c1)c1ncc(C(=O)Nc2cc(C(F)(F)F)c(Cl)cn2)s1 [Example 58] | ≥ 7.00 | ≥ 7.00
C[C@@H](NC(=O)c1cc2c(cn1)ncn2C)c1ncc(C(=O)Nc2cc(C(F)(F)F)c(Cl)cn2)s1 [Example 42] | ≥ 7.00 | ≥ 7.00
CC(NC(=O)c1cncc(N)c1)c1ncc(C(=O)Nc2cc(C(F)(F)F)c(Cl)cn2)s1 (centres unmarked) [Example 44] | ≥ 7.00 | 5.00 to 6.00
CC(NC(=O)c1cc2c(cn1)nc(N)n2C)c1cnc(Nc2cnc(C(C)(C)C)nc2)s1 (centres unmarked) [Example 287] | ≥ 7.00 | ≥ 7.00
Cc1nn(C)c(C)c1C(=O)N[C@H](C)c1ncc(C(=O)Nc2cc(C(F)(F)F)c(Cl)cn2)s1 [Example 110] | ≥ 7.00 | 5.00 to 6.00

Results, then the molecule that gave them:

pIC50 (V599E Raf) | pEC50 [1] | SMILES
≥ 7.00 | 6.00 to 7.00 | C[C@@H](NC(=O)c1cc2c(cn1)ncn2[C@@H]1CCNC1)c1cnc(Nc2ccc(C(F)(F)F)cc2)s1 [Example 26]
≥ 7.00 | ≥ 7.00 | C[C@@H](NC(=O)c1cc2c(cn1)ncn2C1CN(CCO)C1)c1cnc(Nc2ccc(C(F)(F)F)cc2)s1 [Example 348]
≥ 7.00 | 5.00 to 6.00 | CC(NC(=O)c1cc2c(cn1)ncn2C(CO)CO)c1cnc(Nc2ccc(C(F)(F)F)cc2)s1 (centres unmarked) [Example 32]
≥ 7.00 | ≥ 7.00 | CCn1cnc2cnc(C(=O)N[C@H](C)c3cnc(Nc4ccc(C(F)(F)F)cc4)cn3)cc21 [Example 174]
≥ 7.00 | ≥ 7.00 | C[C@@H](NC(=O)c1cc2c(cn1)ncn2[C@H]1CCN(C(=O)OC(C)(C)C)C1)c1cnc(Nc2ccc(C(F)(F)F)cc2)s1 [Example 29]
≥ 7.00 | 6.00 to 7.00 | C[C@@H](NC(=O)c1cc2c(cn1)ncn2C1CN(C)C1)c1cnc(Nc2ccc(C(F)(F)F)cc2)s1 [Example 182]
≥ 7.00 | 6.00 to 7.00 | C[C@@H](NC(=O)c1cc2c(cn1)ncn2CCS(C)(=O)=O)c1cnc(Nc2ccc(C(F)(F)F)cc2)s1 [Example 185]
≥ 7.00 | ≥ 7.00 | CC(NC(=O)c1cc2c(cn1)ncn2C1CCC1)c1cnc(Nc2ccc(C(F)(F)F)nc2)s1 (centres unmarked) [Example 292]
≥ 7.00 | 6.00 to 7.00 | Cc1c(C(=O)NC(C)c2cnc(Nc3ccc(C(F)(F)F)cc3)s2)cnn1C (centres unmarked) [Example 82]
≥ 7.00 | 6.00 to 7.00 | CCN1CC[C@H](n2cnc3cnc(C(=O)N[C@@H](C)c4cnc(Nc5ccc(C(F)(F)F)cc5)s4)cc32)C1 [Example 33]
≥ 7.00 | ≥ 7.00 | CC(NC(=O)c1cc2c(cn1)ncn2C)c1cnc(Nc2ccc(C(F)(F)F)cc2)s1 (centres unmarked) [Example 2]
≥ 7.00 | ≥ 7.00 | CCN1CC(n2cnc3cnc(C(=O)N[C@H](C)c4cnc(Nc5ccc(C(F)(F)F)cc5)s4)cc32)C1 [Example 30]
≥ 7.00 | 6.00 to 7.00 | CC(NC(=O)c1ccc2nccnc2c1)c1cnc(Nc2ccc(C(F)(F)F)cc2)s1 (centres unmarked) [Example 73]
≥ 7.00 | 5.00 to 6.00 | Cc1nc(Nc2ccc(C(F)(F)F)cc2)sc1C(C)NC(=O)c1cc2c(cn1)ncn2C (centres unmarked) [Example 340]
≥ 7.00 | 6.00 to 7.00 | CCn1cnc2cnc(C(=O)NC(C)c3cnc(Nc4ccc(C(F)(F)F)cc4)s3)nc21 (centres unmarked) [Example 198]
≥ 7.00 | ≥ 7.00 | COc1cc(C(F)(F)F)ccc1Nc1ncc(C(C)NC(=O)c2cc3c(cn2)ncn3C)s1 (centres unmarked) [Example 244]
≥ 7.00 | ≥ 7.00 | CCn1cnc2cnc(C(=O)NC(C)c3cnc(Nc4ccc(C(F)(F)F)cc4)s3)cc21 (centres unmarked) [Example 6]
≥ 7.00 | 6.00 to 7.00 | CCn1cc2cc(C(=O)NC(C)c3cnc(Nc4ccc(C(F)(F)F)cc4)s3)ncc2n1 (centres unmarked) [Example 207]
≥ 7.00 | 6.00 to 7.00 | CC(NC(=O)c1cc2nc[nH]c2cn1)c1cnc(Nc2ccc(C(F)(F)F)cc2)s1 (centres unmarked) [Example 5]
≥ 7.00 | 5.00 to 6.00 | O=C(NCc1cnc(Nc2ccc(C(F)(F)F)cc2)s1)c1ccc2ncccc2c1 [Example 189]
≥ 7.00 | ≥ 7.00 | C[C@@H](NC(=O)c1cc2c(cn1)ncn2C)c1cnc(Nc2ccc(C(F)(F)F)cc2)cn1 (single isomer, unassigned) [Example 37]
≥ 7.00 | 6.00 to 7.00 | CCn1cnc2cnc(C(=O)NC(C)c3cnc(Nc4ccc(C(F)(F)F)nc4)s3)cc21 (centres unmarked) [Example 291]
≥ 7.00 | 6.00 to 7.00 | CC(NC(=O)c1ccc2nc(N)sc2c1)c1cnc(Nc2ccc(C(F)(F)F)cc2)s1 (centres unmarked) [Example 75]
